We go through 6 compounds from PubChem BioAssay (NCI).

Each structure is given as a SMILES string.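 All cell lines were grown in 96-well plates and treated with compound for 48 hours. TGI marks complete inhibition of growth.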

Test systems include A498 renal; COLO 205 colon; DU-145 prostate; HCC-2998 colon; HCT-15 colon; HT29 colon; IGROV1 ovarian; KM12 colon; LOX IMVI melanoma; M14 melanoma; MOLT-4 leukemia; NCI-H23 lung; NCI-H460 lung; OVCAR-3 ovarian; SK-MEL-28 melanoma; SNB-19 CNS; T-47D breast; U251 CNS; CCRF-CEM leukemia.
Holding throughout (experiment): NCI anticancer screen, dose series, 48 h

Take `C/C(O)=C(/C=N\C(=S)Nc1ccc(Cl)c(Cl)c1)C(=O)Nc1ccccc1C`: the TGI in the assay with A498 renal was 79.6 µM; in the assay with COLO 205 colon, over 100 µM; in the assay on DU-145 prostate, 92 µM; in the assay with HCC-2998 colon, over 100 µM; in the assay with HCT-15 colon it was over 100 µM; in the assay with HT29 colon, 87.1 µM. For the same compound, the TGI in the assay on IGROV1 ovarian was over 100 µM; with KM12 colon, over 100 µM; with LOX IMVI melanoma, over 100 µM; with M14 melanoma it was over 100 µM; in the assay on MOLT-4 leukemia, 54.9 µM; in the assay with NCI-H23 lung, 76.8 µM. For the same compound, the TGI in the assay with NCI-H460 lung was over 100 µM; in the assay on OVCAR-3 ovarian it was over 100 µM; in the assay on SK-MEL-28 melanoma it was over 100 µM; in the assay on SNB-19 CNS it was 84.2 µM; in the assay on T-47D breast, 45.7 µM; in the assay with U251 CNS, over 100 µM.
`COc1cc2c(c(N)c1OC)C(=O)/C(=C/c1cc(C)c(O)c(C)c1)C2`: the TGI was over 90.4 µM in the assay with A498 renal; 11.7 µM in the assay with CCRF-CEM leukemia; over 52.2 µM in the assay on COLO 205 colon; 16.9 µM with DU-145 prostate; over 100 µM in the assay with HCC-2998 colon; over 100 µM with HCT-15 colon. Besides, the TGI is over 100 µM with HT29 colon; over 100 µM in the assay on IGROV1 ovarian; 1.82 µM with KM12 colon; over 100 µM in the assay on LOX IMVI melanoma; over 100 µM in the assay with M14 melanoma; over 100 µM in the assay on MOLT-4 leukemia. Further, the TGI with NCI-H23 lung is over 46.6 µM; in the assay on NCI-H460 lung, over 57.8 µM; in the assay on SK-MEL-28 melanoma it was over 100 µM; in the assay with SNB-19 CNS, over 100 µM; with T-47D breast, over 100 µM; in the assay on U251 CNS it was over 45.5 µM.
Consider `O=C(Cn1c(C(=O)/C=C/c2ccco2)nc2ccccc21)c1ccc(Cl)cc1`, for which the TGI was 44.4 µM with A498 renal; 27.4 µM with CCRF-CEM leukemia; 49.2 µM with COLO 205 colon; over 100 µM in the assay with DU-145 prostate; 33.6 µM in the assay on HCC-2998 colon; 99.4 µM with HCT-15 colon. Moreover, the TGI with HT29 colon came out at 92.6 µM; with IGROV1 ovarian, 57.1 µM; in the assay on KM12 colon it was 47.1 µM; in the assay on LOX IMVI melanoma, 26.7 µM; in the assay with M14 melanoma, 58.2 µM; in the assay on NCI-H23 lung it was 28.1 µM. The TGI is 27.2 µM in the assay with NCI-H460 lung; over 100 µM in the assay on OVCAR-3 ovarian; over 100 µM in the assay with SK-MEL-28 melanoma; over 100 µM in the assay on SNB-19 CNS; over 100 µM in the assay on T-47D breast; over 100 µM with U251 CNS.
As for `Cc1nc2c(=O)[nH]c3ccccc3c2o1`, the TGI in the assay on A498 renal, with CCRF-CEM leukemia, in the assay with COLO 205 colon, in the assay with DU-145 prostate, with HCC-2998 colon and in the assay with HCT-15 colon was over 100 µM each time. Further, the TGI with HT29 colon, in the assay with IGROV1 ovarian, with KM12 colon, in the assay with LOX IMVI melanoma, in the assay on M14 melanoma and in the assay with NCI-H23 lung was over 100 µM in each case. The TGI in the assay on NCI-H460 lung, with OVCAR-3 ovarian, in the assay with SK-MEL-28 melanoma, in the assay with SNB-19 CNS, with T-47D breast and in the assay with U251 CNS was over 100 µM throughout.
Regarding `CCN(CC)CCCC(C)NC(=O)c1cc(-c2nccn2C)nc2ccc(C)cc12` (configuration not stated), the TGI with A498 renal, in the assay with COLO 205 colon, with DU-145 prostate, in the assay on HCC-2998 colon, with HCT-15 colon and in the assay with HT29 colon was over 100 µM each time. For the same compound, the TGI in the assay with IGROV1 ovarian, in the assay on KM12 colon, with LOX IMVI melanoma, in the assay on M14 melanoma, in the assay on NCI-H23 lung and in the assay with NCI-H460 lung was over 100 µM throughout. Further, the TGI in the assay on SK-MEL-28 melanoma, in the assay with SNB-19 CNS, in the assay with T-47D breast and in the assay on U251 CNS was over 100 µM each time.
As for `CCOC(=O)C1(Cc2ccccc2)Cc2cc3c(cc2C1=O)CCC3` (configuration not stated), the TGI with A498 renal, in the assay with CCRF-CEM leukemia, in the assay on COLO 205 colon, with DU-145 prostate, in the assay with HCC-2998 colon and in the assay on HCT-15 colon was over 100 µM each time. Moreover, the TGI with HT29 colon, with IGROV1 ovarian, in the assay on KM12 colon, in the assay with LOX IMVI melanoma, in the assay on M14 melanoma and with MOLT-4 leukemia was over 100 µM throughout. Further, the TGI with NCI-H23 lung, in the assay on NCI-H460 lung, in the assay with OVCAR-3 ovarian, in the assay with SK-MEL-28 melanoma, in the assay on SNB-19 CNS and in the assay with T-47D breast was over 100 µM in each case. In addition, the TGI with U251 CNS was over 100 µM.
